Our source for the IC50 values is the Kinase Knowledgebase extract (Sharma et al. 2016).

One may read the IC50 as the midpoint of a concentration-inhibition curve. Low readings indicate greater potency in that assay, high ones weaker potency in that assay.

This test deals with MAPK14 (human) (UniProt Q16539). Briefly: Inhibition of MAPK14 Kinase Activity.
MAPK14 (human), sequence (Q16539 whole entry, looked up): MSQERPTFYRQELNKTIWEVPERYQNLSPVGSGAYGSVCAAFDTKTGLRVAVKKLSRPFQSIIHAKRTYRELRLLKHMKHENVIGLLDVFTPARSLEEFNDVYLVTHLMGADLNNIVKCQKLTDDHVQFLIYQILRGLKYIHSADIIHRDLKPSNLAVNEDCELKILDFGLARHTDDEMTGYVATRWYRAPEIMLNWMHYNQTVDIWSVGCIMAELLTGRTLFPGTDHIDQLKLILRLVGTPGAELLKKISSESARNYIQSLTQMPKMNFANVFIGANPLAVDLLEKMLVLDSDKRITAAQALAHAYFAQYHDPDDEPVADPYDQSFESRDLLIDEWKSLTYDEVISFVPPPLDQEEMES

As for `O=C(NC1CCCC1)c1csc(-c2c(-c3ccc(F)cc3)ncn2C2CCNCC2)n1`, the IC50 was no more than 1 µM.

The compound `Cc1nc(-c2ccc(F)cc2)c(-c2nc(C(=O)NCCc3ccc(Cl)cc3)cs2)s1` showed an IC50 of no more than 1 µM.

Turning to `Cc1nc(-c2ccc(F)cc2)c(-c2nc(C(=O)Nc3cnc4ccccc4c3)cs2)s1`, the IC50 was no more than 1 µM.

On to `Cc1nc(-c2ccc(F)cc2)c(-c2nc(C(=O)NC(C)CO)cs2)s1` (stereo not drawn), for which the IC50 was no more than 1 µM.

With `CC(C)NC(=O)c1csc(-c2oc(CN3CCN(C(=O)CCc4ccccc4O)CC3)nc2-c2ccc(F)cc2)n1`, the IC50 is no more than 1 µM.

Turning to `Cc1nc(-c2ccc(F)cc2)c(-c2nc(C(=O)NC3CCCCC3C)cs2)s1` (stereo not drawn), the IC50 is no more than 1 µM.

`CC(C)NC(=O)c1csc(-c2oc(CNC(=O)c3ccc(C(F)(F)F)cc3[N+](=O)[O-])nc2-c2ccc(F)cc2)n1` came in with an IC50 of no more than 1 µM.

With `CC(C)NC(=O)c1csc(-c2oc(CN3CCN(C(=O)Cc4cccc(O)c4)CC3)nc2-c2ccc(F)cc2)n1`, the IC50 was no more than 1 µM.

`CC(C)NC(=O)c1csc(-c2[nH]c(CN(C)C)nc2-c2ccc(F)cc2)n1` gave an IC50 of no more than 1 µM.

`Cc1nc(-c2ccc(F)cc2)c(-c2nc(C(=O)NCc3cccc(Cl)c3)cs2)s1` displayed an IC50 of no more than 1 µM.

As to `CC(C)NC(=O)c1csc(-c2oc(CNC(=O)CCc3ccccc3O)nc2-c2ccc(F)cc2)n1`, the IC50 was no more than 1 µM.

`CCN(CC)CCNC(=O)c1csc(-c2sc(C)nc2-c2ccc(F)cc2)n1` displayed an IC50 of no more than 1 µM.

As for `CC(C)NC(=O)c1csc(-c2c(-c3ccc(F)cc3)n[nH]c2C2CCN(C(=O)c3ccncc3)CC2)n1`, the IC50 was no more than 1 µM.

In turn, `CC(C)NC(=O)c1csc(-c2oc(CNC(=O)C=Cc3ccc(Cl)cc3)nc2-c2ccc(F)cc2)n1` yielded an IC50 of no more than 1 µM.

`CC(C)NC(=O)c1csc(-c2c(-c3ccc(F)cc3)n[nH]c2C2CCN(C(=O)C(O)CCl)CC2)n1` (stereo not drawn) had an IC50 of no more than 1 µM.

The compound `CC(C)NC(=O)c1csc(-c2c(-c3ccc(F)cc3)n[nH]c2C2CCN(C(=O)c3ncc[nH]3)CC2)n1` displayed an IC50 of no more than 1 µM.

In turn, `COc1ccccc1NC(=O)c1csc(-c2sc(C)nc2-c2ccc(F)cc2)n1` came in with an IC50 of no more than 1 µM.

Take `CC(C)NC(=O)c1csc(-c2oc(CN3CCN(C(=O)c4cc(O)c(O)c(O)c4)CC3)nc2-c2ccc(F)cc2)n1`: the IC50 was no more than 1 µM.

As to `CC(C)NC(=O)c1csc(-c2oc(CNC(=O)C(C)c3ccc(O)cc3)nc2-c2ccc(F)cc2)n1` (stereo not drawn), the IC50 is no more than 1 µM.

For the compound `CC(C)NC(=O)c1csc(-c2c(-c3ccc(F)cc3)n[nH]c2C2CCN(C(=O)C(C)(C)O)CC2)n1`, the IC50 was no more than 1 µM.

In turn, `Cc1[nH]nc(-c2ccc(F)cc2)c1-c1nc(C(=O)NCc2ccc3c(c2)OCO3)cs1` gave an IC50 of no more than 1 µM.

`CC(C)NC(=O)c1csc(-c2oc(CNC(=O)c3cc(F)ccc3[N+](=O)[O-])nc2-c2ccc(F)cc2)n1` returned a half-inhibitory concentration (IC50) of no more than 1 µM.

The compound `CC(C)NC(=O)c1csc(-c2[nH]c(CN3CCOCC3)nc2-c2ccc(F)cc2)n1` came in with an IC50 of no more than 1 µM.

In turn, `CCCCCCCC(=O)NCc1nc(-c2ccc(F)cc2)c(-c2nc(C(=O)NC(C)C)cs2)o1` registered an IC50 of no more than 1 µM.

As to `Cc1nc(-c2ccc(F)cc2)c(-c2nc(C(=O)NCCCn3ccnc3)cs2)s1`, the IC50 was no more than 1 µM.

Compound `CC(C)NC(=O)c1csc(-c2oc(CNC(=O)c3ccc4ncccc4c3)nc2-c2ccc(F)cc2)n1` showed an IC50 of no more than 1 µM.

`Cc1nc(-c2ccc(F)cc2)c(-c2nc(C(=O)NCC3CCCCC3)cs2)s1`: the IC50 is no more than 1 µM.

For the compound `CC(C)NC(=O)c1csc(-c2oc(CNC(=O)c3c(F)c(F)c(F)c(F)c3F)nc2-c2ccc(F)cc2)n1`, the IC50 is no more than 1 µM.

The compound `CC(C)NC(=O)c1csc(-c2oc(CNC(=O)c3cccnc3Cl)nc2-c2ccc(F)cc2)n1` came in with an IC50 of no more than 1 µM.

Take `Cc1nc(-c2ccc(F)cc2)c(-c2nc(C(=O)Nc3ccc(N(C)C)cc3)cs2)s1`: the IC50 was no more than 1 µM.

`CC(C)NC(=O)c1csc(-c2c(-c3ccc(F)cc3)n[nH]c2C2CCN(C(=O)C(C(C)C)N(C)C(=O)OC(C)(C)C)CC2)n1` (stereo not drawn) had an IC50 of no more than 1 µM.

Compound `CC(C)NC(=O)c1csc(-c2c(-c3ccc(F)cc3)noc2CNC(=O)CC#N)n1` showed an IC50 of no more than 1 µM.

`CC(CC(=O)N1CCN(Cc2nc(-c3ccc(F)cc3)c(-c3nc(C(=O)NC(C)C)cs3)o2)CC1)CC(C)(C)C` (stereo not drawn) had an IC50 of no more than 1 µM.

As for `CC(C)NC(=O)c1csc(-c2c(-c3ccc(F)cc3)n[nH]c2C2CCN(C(=O)c3cc(Cl)ccn3)CC2)n1`, the IC50 is no more than 1 µM.

With `CC(C)NC(=O)c1csc(-c2oc(CNC(=O)c3cccc(Cl)c3Cl)nc2-c2ccc(F)cc2)n1`, the IC50 was no more than 1 µM.

`CCOc1ccccc1CNC(=O)c1csc(-c2sc(C)nc2-c2ccc(F)cc2)n1` registered an IC50 of no more than 1 µM.

`O=C(NC1CC1)c1csc(-c2c(-c3ccc(F)cc3)n[nH]c2C2CCNCC2)n1` gave an IC50 of no more than 1 µM.

With `CC(C)NC(=O)c1csc(-c2oc(CNCCC(C)(C)C)nc2-c2ccc(F)cc2)n1`, the IC50 is no more than 1 µM.

On to `Cc1ccc(F)cc1C(=O)NCc1nc(-c2ccc(F)cc2)c(-c2nc(C(=O)NC(C)C)cs2)o1`, for which the IC50 was no more than 1 µM.

As for `COc1ccccc1CC(=O)NCc1nc(-c2ccc(F)cc2)c(-c2nc(C(=O)NC(C)C)cs2)o1`, the IC50 was no more than 1 µM.

Take `COCCNCc1nc(-c2ccc(F)cc2)c(-c2nc(C(=O)NC(C)C)cs2)o1`: the IC50 was no more than 1 µM.

`Cc1ccc([N+](=O)[O-])c(C(=O)NCc2onc(-c3ccc(F)cc3)c2-c2nc(C(=O)NC(C)C)cs2)c1` had an IC50 of no more than 1 µM.

Regarding `Cc1nc(-c2ccc(F)cc2)c(-c2nc(C(=O)NCCc3cccc(Cl)c3)cs2)s1`, the IC50 was no more than 1 µM.

As for `Cc1ccc(S(=O)(=O)NCCNC(=O)c2csc(-c3sc(C)nc3-c3ccc(F)cc3)n2)cc1`, the IC50 was no more than 1 µM.

In turn, `COc1ccc(CNC(=O)c2csc(-c3c(-c4ccc(F)cc4)n[nH]c3C3CCNCC3)n2)cc1O` had an IC50 of no more than 1 µM.

`CC(C)NC(=O)c1csc(-c2c(-c3ccc(F)cc3)n[nH]c2C2CCN(C(=O)c3ccncc3Cl)CC2)n1` showed a half-maximal inhibitory concentration (IC50) of no more than 1 µM.

In turn, `Cc1cccc([N+](=O)[O-])c1C(=O)N1CCN(Cc2nc(-c3ccc(F)cc3)c(-c3nc(C(=O)NC(C)C)cs3)o2)CC1` yielded an IC50 of no more than 1 µM.

In turn, `COc1ccc(C=CC(=O)NCc2nc(-c3ccc(F)cc3)c(-c3nc(C(=O)NC(C)C)cs3)o2)cc1O` returned an IC50 of no more than 1 µM.

As for `CC(C)NC(=O)c1csc(-c2oc(CNC(=O)c3cccc(O)c3)nc2-c2ccc(F)cc2)n1`, the IC50 was no more than 1 µM.

The compound `CC(C)NC(=O)c1csc(-c2[nH]c(CO)nc2-c2ccc(F)cc2)n1` registered an IC50 of no more than 1 µM.

As to `CC(C)NC(=O)c1csc(-c2c(-c3ccc(F)cc3)n[nH]c2C2CCN(C(=O)CCc3nc4ccccc4[nH]3)CC2)n1`, the IC50 was no more than 1 µM.

Consider `CCOC(=O)CC(=O)N1CCC(c2[nH]nc(-c3ccc(F)cc3)c2-c2nc(C(=O)NC(C)C)cs2)CC1`, for which the IC50 is no more than 1 µM.

Regarding `CC(C)NC(=O)c1csc(-c2oc(CNC(=O)CC3=CC(Cl)=C(O)OC3)nc2-c2ccc(F)cc2)n1`, the IC50 was no more than 1 µM.

Take `COc1cc(C(=O)NCc2nc(-c3ccc(F)cc3)c(-c3nc(C(=O)NC(C)C)cs3)o2)c([N+](=O)[O-])cc1OC`: the IC50 is no more than 1 µM.

As for `CC(C)NC(=O)c1csc(-c2oc(CN3CCN(C(=O)CC#N)CC3)nc2-c2ccc(F)cc2)n1`, the IC50 is no more than 1 µM.

Consider `CC(C)NC(=O)c1csc(-c2oc(CNC(=O)c3ccc(O)cc3O)nc2-c2ccc(F)cc2)n1`, for which the IC50 was no more than 1 µM.

For `COc1ccc(O)c(C(=O)N2CCN(Cc3nc(-c4ccc(F)cc4)c(-c4nc(C(=O)NC(C)C)cs4)o3)CC2)c1`, the IC50 is no more than 1 µM.

`N#CCNC(=O)c1csc(-c2c(-c3ccc(F)cc3)n[nH]c2C2CCNCC2)n1` registered an IC50 of no more than 1 µM.

Consider `Cc1nc(-c2ccc(F)cc2)c(-c2nc(C(=O)NC(C)C)cs2)o1`, for which the IC50 is no more than 1 µM.

Turning to `Cc1nc(-c2ccc(F)cc2)c(-c2nc(C(=O)Nc3ccc(C(F)(F)F)cc3C(F)(F)F)cs2)s1`, the half-inhibitory concentration (IC50) was no more than 1 µM.

As for `CC(C)NC(=O)c1csc(-c2oc(CN3CCN(C(=O)c4ccncc4)CC3)nc2-c2ccc(F)cc2)n1`, the IC50 was no more than 1 µM.

For `COc1ccc2cc(C(C)C(=O)NCc3nc(-c4ccc(F)cc4)c(-c4nc(C(=O)NC(C)C)cs4)o3)ccc2c1` (stereo not drawn), the IC50 is no more than 1 µM.

The compound `Cc1[nH]nc(-c2ccc(F)cc2)c1-c1nc(C(=O)NCc2cccnc2)cs1` returned an IC50 of no more than 1 µM.

In turn, `CC(C)NC(=O)c1csc(-c2oc(CNC(=O)c3ncc[nH]3)nc2-c2ccc(F)cc2)n1` showed an IC50 of no more than 1 µM.

Regarding `COc1cc(C(=O)N2CCN(Cc3nc(-c4ccc(F)cc4)c(-c4nc(C(=O)NC(C)C)cs4)o3)CC2)cc(OC)c1O`, the IC50 is no more than 1 µM.

`CC(C)NC(=O)c1csc(-c2oc(CN3CCN(C(=O)c4cc([N+](=O)[O-])ccc4Cl)CC3)nc2-c2ccc(F)cc2)n1` displayed an IC50 of no more than 1 µM.

Compound `CC(C)NC(=O)c1csc(-c2oc(CN3CCN(C(=O)c4ncc[nH]4)CC3)nc2-c2ccc(F)cc2)n1` registered an IC50 of no more than 1 µM.

On to `CC(C)NC(=O)c1csc(-c2oc(CN3CCN(C(=O)C=O)CC3)nc2-c2ccc(F)cc2)n1`, for which the IC50 is no more than 1 µM.

Turning to `Cc1cccc(CNC(=O)c2csc(-c3sc(C)nc3-c3ccc(F)cc3)n2)c1`, the IC50 is no more than 1 µM.

Compound `CC(C)NC(=O)c1csc(-c2oc(CN3CCN(C(=O)c4ccccc4-c4ccccc4)CC3)nc2-c2ccc(F)cc2)n1` gave an IC50 of no more than 1 µM.

`CC(C)NC(=O)c1csc(-c2c(-c3ccc(F)cc3)n[nH]c2C2CCN(C(=O)CC#N)CC2)n1` returned an IC50 of no more than 1 µM.

For `CC(C)NC(=O)c1csc(-c2oc(CN(C)C)nc2-c2ccc(F)cc2)n1`, the IC50 was no more than 1 µM.

Compound `O=C(NC1CCC1)c1csc(-c2c(-c3ccc(F)cc3)n[nH]c2C2CCNCC2)n1` registered an IC50 of no more than 1 µM.

The compound `CC(C)NC(=O)c1csc(-c2oc(CNC(=O)Cc3ccccc3O)nc2-c2ccc(F)cc2)n1` returned an IC50 of no more than 1 µM.

As for `CC(C)NC(=O)c1csc(-c2oc(CNCCc3ccc(S(N)(=O)=O)cc3)nc2-c2ccc(F)cc2)n1`, the IC50 is no more than 1 µM.

With `Cc1nc(-c2ccc(F)cc2)c(-c2nc(C(=O)NCCN3CCCC3)cs2)s1`, the IC50 was no more than 1 µM.

`COc1ccc(CNC(=O)c2csc(-c3sc(C)nc3-c3ccc(F)cc3)n2)cc1OC` gave an IC50 of no more than 1 µM.

In turn, `CC(C)NC(=O)c1csc(-c2oc(CNC(=O)c3cccc(F)c3F)nc2-c2ccc(F)cc2)n1` came in with an IC50 of no more than 1 µM.
